In series [1] the test system is Plasmodium falciparum T9/94 (CQ). Briefly: [3H]hypoxanthine incorporation antimalarial assay, strain T9/94. In kind it is cell-based. The following applies: 72 h, read-out: IC50 T9/94 (CQ). Here is the method: (§1) The activity of the test compounds against P. falciparum in vitro was determined using the tritiated hypoxanthine incorporation assay of Desjardins et al. and additionally modified by Milhous and Chulay (Chulay, Haynes, & Diggs, [1983]; Milhous, Weatherly, Bowdre, & Desjardins, [1985]).
(§2) Compounds were dissolved in DMSO and subsequently diluted in the culture medium (RPMI 1640) supplemented with 10% v/v human plasma. Serial 1:2 drug dilutions were prepared in triplicate in microtitre plates. Culture medium supplemented with 10% v/v human plasma and type A Rhesus positive human erythrocytes infected with P. falciparum strains was added to yield a haematocrit of 3% and a parasitaemia of 0.25–0.55%. The plates were incubated at 37°C in a modular incubator flushed with a mixture of 5% oxygen, 3% carbon dioxide, and 92% nitrogen for 48 h, and then [^3H]hypoxanthine was added to give a final concentration of 12.5–16 μCi·ml^−1. After incubation for additional 24 h, particulate matter was harvested on fibreglass strips and hypoxanthine incorporation determined by scintillation spectrophotometry. […] Delayed death experiments were performed by this standard method but extending the incubation time with the drug up to 96 h.

The nature of series [2]: Pharmacokinetic studies in CD-1 mice. The following applies: for B/P (ratio of AUC0−t in whole blood and plasma): after oral administration; for DNAUCPO (AUC0−t divided by the dose) / Cmax: blood; for DNAUCPO (AUC0−t divided by the dose): oral gavage 12.5 mg·kg^−1; for half-life / Vd / clearance / bioavailability / AUC(0-t) / Cmax: Swiss albino CD-1, mouse; for Vd / clearance: iv; for AUC(0-t): AUC0-t; for AUC(0-t) / Cmax: oral gavage 12.5 mg/kg; for Cmax: C max. Here is the method: For pharmacokinetic (PK) studies in mice, animals were dosed either by intravenous (i.v.) or oral (p.o.) route. For i.v. administration, the dosing volume was 10 ml·kg^−1 for a total dose of 12.5 mg·kg^−1, and for p.o. administration, the dosing volume was 20 ml·kg^−1 for a total dose of 12.5 mg·kg^−1. Dosing solutions were prepared in 100% saline ([…]) both for i.v. and p.o. administration for all compounds with the exception of compound 4 for which dosing solutions were prepared in PBS with 5% Cremophor‐EL (Fluka). Following i.v. dosing, blood samples were collected at 5 and 15 min, 1, 3, 6, 8, 24, and 48 h post‐dose. Following oral dosing, blood samples were collected at 15 and 30 min, 1, 2, 4, 6, 8, 24, and 48 h post‐dose.
For studies performed in Swiss albino CD‐1 mice (Harlan Laboratories, Spain), in order to obtain simultaneous blood and plasma profiles and blood‐to‐plasma (B/P) ratio, PK was performed using terminal sampling of N = 3 animals per time point and data evaluated using composite analysis. For studies performed in P. falciparum infected and non‐infected NODscidβ2m^−/− mice (Charles River Laboratories, France), only whole blood was obtained by serial sampling of N = 3 animals using tail puncture.
For analysis of whole blood samples, 25 μl of fresh blood were mixed with 25 μl of saponin solution (0.1% in water) and immediately frozen on dry ice. Plasma was obtained by centrifugation of fresh blood at 2,500 g for 10 min. Both blood and plasma samples were stored frozen at −80°C until analysis.
Diluted blood and plasma samples were processed under standard liquid–liquid extraction procedures using acetonitrile containing internal standard (clarithromycin, 100 ng·ml^−1) and analysed by LC–MS/MS in positive ion mode with electrospray. Samples were assayed for parent compound using a Sciex API 4000 and Sciex API‐2000 Triple Quadrupole Mass Spectrometer (Sciex, Division of MDS Inc., Toronto, Canada), against a series of matrix matched calibration curve standards, using multiple reaction monitoring (MRM) at the specific transitions for each compound. Non‐compartmental analysis was performed using WinNonlin, version 4.1 (Pharsight, Mountain View, CA), and the main pharmacokinetic parameters were estimated.

The test system of series [3] is Plasmodium falciparum 7G8 (CQ, PY). The experiment in a line: [3H]hypoxanthine incorporation antimalarial assay, strain 7G8. The class given is cell-based. As to the method: as §1, §2
The subject of series [4] is Plasmodium falciparum K1 (CQ,PY). The experiment in a line: [3H]hypoxanthine incorporation antimalarial assay, strain K1. The class given is cell-based. As to the method:
as §1, §2

The next series deals with M. catarrhalis ATCC23246. Briefly: Antibacterial screen, broth microdilution. The class given is cell-based, Moraxella catarrhalis. The following applies: Moraxella catarrhalis, ATCC23246; broth microdilution. Here is the method: Antibacterial activity of compounds was determined by a standard broth microdilution method (Clinical Laboratory Standard Institute CLSI, [2009]), except that for Streptococcus strains lysed blood was substituted with 5% horse serum in the testing medium. […] The activities are expressed as minimum inhibitory concentrations (MICs) in units of μg·ml^−1. […] The organisms tested represented macrolide sensitive Gram‐positive pathogens that are mainly targeted by macrolide antibiotics. Tested streptococci were clinical isolates Streptococcus pneumoniae SP030 and Streptococcus pyogenes 3565 from internal strain collection, and other strains were obtained from ATCC bioresource centre, Staphylococcus aureus ATCC13709, Haemophilus influenzae ATCC49247, and Moraxella catarrhalis ATCC23246. Double dilutions of tested compounds were prepared using TECAN Genesis 150. Bacteria were grown on appropriate agar plates (Becton Dickinson, USA)—Columbia agar with 5% sheep blood for streptococci and M. catarrhalis, Mueller‐Hinton chocolate agar for H. influenzae , and Mueller‐Hinton agar for staphylococci.
For orientation: Broth dilution looks for growth in wells or tubes with falling amounts of substance.

The test system of series [5] is P. falciparum 3D7^0087/N9. Briefly: P. falciparum murine model (humanized mice), 4-day test. The class given is in vivo, Plasmodium falciparum. The note with it: for ED90: oral QD for 4 days, parasitaemia at day 7, humanized mice. As to the method: The in vivo efficacy evaluation of the compounds was performed using a P. falciparum murine model of malaria in non‐myelodepleted NOD. Cg‐Prkdc^ scid –β2m^ tm1Unc ‐scid IL2R_null (NODscidβ2m^−/−) mice engrafted with human erythrocytes as described previously (Angulo‐Barturen et al., [2008]; Jimenez‐Diaz et al., [2005]; Jimenez‐Diaz et al., [2009]; Jimenez‐Diaz et al., [2009]), as this model enables testing of P. falciparum strains with high infectious burden. Briefly, groups of three mice engrafted with human erythrocytes were infected with 20 × 10^6 of P. falciparum 3D7^0087/N9‐infected erythrocytes/mouse by intravenous route. The mice were randomly assigned to their corresponding experimental groups. The treatment of oral doses QD for 4 days started at day 3 after infection. Parasitaemia was measured at days 3, 5, and 7 post‐infection. The therapeutic efficacy was expressed as the dose (mg·kg^−1) that reduced parasitaemia in peripheral blood of mice at day 7 after infection by 90% (ED90) with respect to vehicle‐treated mice. Chloroquine was included as quality control for each in vivo assay. Efficacy is expressed as the daily dose (ED90), or equivalent exposure (AUCED90), administered to mice necessary to reduce parasitaemia at day 7 by 90% with respect to vehicle‐treated mice. The ED90 is estimated by fitting a four‐decade logistic equation for the log10 [parasitaemia at day 7] versus the log10 [dose] using GraphPad Prism 5.01 (GraphPad Software Inc., San Diego, CA).

Series [6] concerns Plasmodium falciparum FCR3 (CQ,AT). The experiment in a line: [3H]hypoxanthine incorporation antimalarial assay, strain FCR3. In kind it is cell-based. The following applies: FCR3, 72 h, read-out: IC50 FCR3 (CQ,AT). As to the method:
as §1, §2

Setting [7] is: whole blood, po, 12.5 mg/kg, F, CD‐1 mice, 12.5 mg·kg^−1 i.v. and p.o.
Setting [8] is: whole blood, intravenous, 12.5 mg/kg.
Where [9] appears, read: whole blood, po, 12.5 mg/kg, fasted CD-1 mice.
The mark [10] stands for this setting: whole blood, po, 12.5 mg/kg, fed CD-1 mice.
Where [11] appears, read: 7G8, 72 h, read-out: IC50 7G8 (CQ, PY).
Where [12] appears, read: K1, 72 h, read-out: IC50 K1 (CQ,PY).

Values after ≈ are worked out from the molar mass of the structure shown. Where two headings read alike, the source gives them in different places.

Consider `CC[C@H]1OC(=O)[C@H](C)[C@@H](O[C@H]2C[C@@](C)(OC)[C@@H](O)[C@H](C)O2)[C@H](C)[C@@H](O[C@@H]2O[C@H](C)C[C@H](N(C)C)[C@H]2O)[C@](C)(O)C[C@@H](C)CN(C)[C@H](C)[C@@H](O)[C@]1(C)O` [Azithromycin, reference compound], for which the IC50 in series [1] is 2.72 µM; in series [3] (7G8, 72 h of incubation, N = 3, read-out: IC50 7G8 (CQ, PY)), 4.59 µM; in series [4] (K1, 72 h of incubation, N = 3, read-out: IC50 K1 (CQ,PY)), 2.72 µM; in series [6], 2.59 µM. In addition, in series [2] (CD‐1 mice), the “B/P (ratio of AUC0−t in whole blood and plasma)” value came out at 2.4. Moreover, the “DNAUCPO (AUC0−t divided by the dose)” value in series [2] (CD‐1 mice) amounted to 267 ng·kg·h/mL/mg. Moreover, the half-life in series [2] (in vivo, 12.5 mg/kg) is 10.1 h. In series [2] (whole blood, 12.5 mg/kg), the Vd came out at 29.2 L/kg. In series [2] (whole blood, 12.5 mg/kg), this compound came in with a clearance of 2.41 L/h/kg. The bioavailability in series [2] (setting [7]) is 61%. In the series on M. catarrhalis ATCC23246, this compound displayed a minimal inhibitory concentration (MIC) of at most 0.125 mg/L. Further, in series [5], the ED90 is over 200 mg/kg.
For `CC[C@H]1OC(=O)[C@H](C)[C@@H](O[C@H]2C[C@@](C)(OC)[C@@H](O)[C@H](C)O2)[C@H](C)[C@@H](O[C@@H]2O[C@H](C)C[C@H](N(C)C)[C@H]2O)[C@](C)(O)C[C@@H](C)CN(CCCNc2ccnc3cc(Cl)ccc23)[C@H](C)[C@@H](O)[C@]1(C)O` [Compound 1], the IC50 in series [1] turned out to be 0.013 µM; in series [3] (setting [11]), 0.037 µM; in series [4] (setting [12]) it was 0.023 µM; in series [6], 0.022 µM. Further, the “B/P (ratio of AUC0−t in whole blood and plasma)” value in series [2] (CD‐1 mice) is reported as 14.0. In addition, in series [2] (CD‐1 mice), the “DNAUCPO (AUC0−t divided by the dose)” value was 253 ng·kg·h/mL/mg. The compound further showed a half-life in series [2] (setting [8]) of 28.2 h. This compound showed a distribution volume (Vd) in series [2] (whole blood, 12.5 mg/kg) of 4.42 L/kg. The compound further gave a clearance in series [2] (whole blood, 12.5 mg/kg) of 0.117 L/h/kg. Also, the bioavailability in series [2] (whole blood, oral, 12.5 mg·kg^−1, F, fasted CD-1 mice, ratio of AUC0-t after PO and IV) stood at 11.3%; in series [2] (whole blood, oral, 12.5 mg·kg^−1, F, fed CD-1 mice, ratio of AUC0-t after PO and IV), 3.75%; in series [2] (setting [7]) it was 4%. Besides, the AUC(0-t) in series [2] (setting [9]) was found to be 9.51 µg·h/mL; in series [2] (setting [10]), 3.16 µg·h/mL. Also, the peak concentration (Cmax) is 0.582 µg/mL in series [2] (setting [9]) and 0.162 µg/mL in series [2] (setting [10]). In addition, in series [2] (fed versus fasted mice), the “increase in oral F in fasted versus fed mice” value was “threefold increase”. In the series on M. catarrhalis ATCC23246, the MIC came to 2 mg/L (≈ 2.1 µM). Moreover, in series [5] (humanized mice, oral 4‐day treatment), the “day of follow‐up up to which parasitaemia remained undetectable / parasite growth suppressed” value is at least 24 days.
As to `CC[C@H]1OC(=O)[C@H](C)[C@@H](O)[C@H](C)[C@@H](O[C@@H]2O[C@H](C)C[C@H](N(C)C)[C@H]2OCCCNc2ccnc3ccccc23)[C@](C)(O)C[C@@H](C)CN[C@H](C)[C@@H](O)[C@]1(C)O` [Compound 3], the IC50 in series [1] amounted to 0.021 µM; in series [3] (setting [11]), 0.017 µM; in series [4] (setting [12]), 0.024 µM; in series [6], 0.022 µM. In series [2] (CD‐1 mice), the “B/P (ratio of AUC0−t in whole blood and plasma)” value amounted to 3.7. Further, the “DNAUCPO (AUC0−t divided by the dose)” value in series [2] (CD‐1 mice) was determined as 362 ng·kg·h/mL/mg. The compound further showed a half-life in series [2] (setting [8]) of 15.6 h. The same compound showed a Vd in series [2] (whole blood, 12.5 mg/kg) of 13.4 L/kg. The clearance in series [2] (whole blood, 12.5 mg/kg) came out at 0.606 L/h/kg. Besides, in series [2] (setting [7]), the bioavailability was 26%. The MIC against M. catarrhalis ATCC23246 was over 64 mg/L. The same compound showed an ED90 in series [5] of 23.9 mg/kg.

A word on the half-life: it is the time in which the quantity being followed falls by half. One may read the Vd as a proportionality between amount in the body and measured concentration, not a real space. Read a low Vd as confinement near the circulation. The clearance is a measure of how efficiently the substance is removed, as volume per time. Low readings indicate inefficient removal, high ones efficient removal. One may read the bioavailability as the share of a dose that reaches the circulation, judged against a reference dose that is usually intravenous. By MIC is commonly meant the lowest concentration that inhibits growth of the organism. A higher MIC goes with a less susceptible organism. The AUC(0-t) is the area under the concentration-time curve up to a stated or last time point. In general, Cmax refers to the peak of the concentration-time curve.

The values above are taken from publication PMC9328652, “A novel class of fast‐acting antimalarial agents: Substituted 15‐membered azalides” (British Journal of Pharmacology, 2020).
